# Data reported in patent US20230258624A1, “Ex vivo tumour immune microenvironment model, a method for preserving a tumour-specific immune cell profile in an ex vivo tumour immune microenvironment model and use of nanofibrillar cellulose” (UPM-Kymmene Corporation, priority 2022, published 2023).
# Tested on: PDECs
# Test: Cytokine profiling (ELISA) of PDEC growth media
# Type: cell-based, human
# Method: Media (1 ml) collected from NFC-grown PDECs or PBMCs at day 3 and day 7 timepoints was stored at −80° C. until the day of analysis. […] Cell and matrix debris were removed after thawing by centrifugation (10 min, 10 000 G, RT). Cytokines secreted to growth media were analyzed with R&D DuoSetELISA kits (IL2: DY202-05, IL-10: DY217B-05, TNF-α: DY210-05, IFN-γ: DY285B-05, IL-4: DY204-05, IL-6: DY206-05, IL-1β/IL1F2: DY201-05, LAP (TGF-β1): DY246-05) together with DuoSet Ancillary Reagent Kit 2 (DY008), according to manufacturer's protocol. Briefly, plates were coated with capture antibody overnight at RT, washed 3 times and blocked with 1% BSA in PBS for 1 hour. Samples diluted in growth media were added and incubated for 2 hours at RT. After 3 washes, detection antibody was added and incubated for 2 hours at RT. After washes, Streptavidin-HRP was added and incubated for 20 min at RT, protected from light. After washes, Substrate solution was added for 20 min, protected from light, after which the reaction was stopped with stop solution and absorbance was immediately determined using a microplate reader set to 450 nm, and 540 nm to subtract background (Omega Fluostar, BMG Labtech).
smiles,measurement,setting,value
O=C(O)CCCC[C@@H]1SC[C@@H]2NC(=O)N[C@@H]21 [biotin],amount of inflammatory cytokine IFN-γ,"1 μM biotin added to PDEC growth media, NFC cultures",clearly decreased
same,inflammatory cytokine secretion into the media,biotin added to growth media after functionalization of the matrix,clearly decreased
